Results as given in PubChem BioAssay AID1259407 (Chemical Carcinogenesis Research Information System (CCRIS), 2018).
Activity calls are given as the source filed them. No rule for the calls is given here.

Test system: CCRIS mutagenicity, Ames/micronucleus/aberration tests
Experiment: CCRIS mutagenicity studies
[1] = Test System: AMES SALMONELLA TYPHIMURIUM, Strain/Indicator: TA98, Metabolic Activation: NONE, Method: STANDARD PLATE
[2] = Test System: AMES SALMONELLA TYPHIMURIUM, Strain/Indicator: TA98, Metabolic Activation: RAT, LIVER, S-9, AROCLOR 1254, Method: STANDARD PLATE
[3] = Test System: AMES SALMONELLA TYPHIMURIUM, Strain/Indicator: TA100, Metabolic Activation: NONE, Method: STANDARD PLATE
[4] = Test System: AMES SALMONELLA TYPHIMURIUM, Strain/Indicator: TA100, Metabolic Activation: RAT, LIVER, S-9, AROCLOR 1254, Method: STANDARD PLATE
[5] = Test System: AMES SALMONELLA TYPHIMURIUM, Strain/Indicator: TA1535, Metabolic Activation: NONE, Method: STANDARD PLATE
[6] = Test System: AMES SALMONELLA TYPHIMURIUM, Strain/Indicator: TA1535, Metabolic Activation: RAT, LIVER, S-9, AROCLOR 1254, Method: STANDARD PLATE
[7] = Test System: AMES SALMONELLA TYPHIMURIUM, Strain/Indicator: TA1537, Metabolic Activation: NONE, Method: STANDARD PLATE
[8] = Test System: AMES SALMONELLA TYPHIMURIUM, Strain/Indicator: TA1537, Metabolic Activation: RAT, LIVER, S-9, AROCLOR 1254, Method: STANDARD PLATE
[9] = Test System: AMES SALMONELLA TYPHIMURIUM, Strain/Indicator: TA1538, Metabolic Activation: NONE, Method: STANDARD PLATE
[10] = Test System: AMES SALMONELLA TYPHIMURIUM, Strain/Indicator: TA1538, Metabolic Activation: RAT, LIVER, S-9, AROCLOR 1254, Method: STANDARD PLATE

## [CH3][Hg][Cl]
End Point: IN VITRO CHROMOSOMAL ABERRATIONS, Test System: CHO CELLS, Metabolic Activation: NONE
  mutagenic call: active; positive (structural changes)
End Point: IN VITRO MICRONUCLEUS, Test System: CHL/IU CELLS, Metabolic Activation: NONE
  mutagenic call: active; positive
End Point: IN VITRO MICRONUCLEUS, Test System: HUMAN PERIPHERAL LYMPHOCYTES, Metabolic Activation: NONE
  mutagenic call: active; positive
End Point: IN VITRO MICRONUCLEUS, Test System: HUMAN PERIPHERAL LYMPHOCYTES, Metabolic Activation: NONE, Method: FISH (CENTROMERIC SIGNAL CONTENT)
  mutagenic call: active; positive
Test System: AMES SALMONELLA TYPHIMURIUM, Strain/Indicator: TA97, Metabolic Activation: HAMSTER, LIVER, S-9, AROCLOR 1254 (10 OR 30%), Method: PREINCUBATION
  mutagenic call: inactive; negative
Test System: AMES SALMONELLA TYPHIMURIUM, Strain/Indicator: TA97, Metabolic Activation: NONE, Method: PREINCUBATION
  mutagenic call: inactive; negative
Test System: AMES SALMONELLA TYPHIMURIUM, Strain/Indicator: TA97, Metabolic Activation: RAT, LIVER, S-9, AROCLOR 1254 (10 OR 30%), Method: PREINCUBATION
  mutagenic call: inactive; negative
Test System: AMES SALMONELLA TYPHIMURIUM, Strain/Indicator: TA98, Metabolic Activation: HAMSTER, LIVER, S-9, AROCLOR 1254 (10 OR 30%), Method: PREINCUBATION
  mutagenic call: inactive; negative
Test System: AMES SALMONELLA TYPHIMURIUM, Strain/Indicator: TA98, Metabolic Activation: NONE, Method: PREINCUBATION
  mutagenic call: inactive; negative
Test System: AMES SALMONELLA TYPHIMURIUM, Strain/Indicator: TA98, Metabolic Activation: RAT, LIVER, S-9, AROCLOR 1254 (10 OR 30%), Method: PREINCUBATION
  mutagenic call: inactive; negative
Test System: AMES SALMONELLA TYPHIMURIUM, Strain/Indicator: TA100, Metabolic Activation: HAMSTER, LIVER, S-9, AROCLOR 1254 (10 OR 30%), Method: PREINCUBATION
  mutagenic call: inactive; negative
Test System: AMES SALMONELLA TYPHIMURIUM, Strain/Indicator: TA100, Metabolic Activation: NONE, Method: PREINCUBATION
  mutagenic call: inactive; negative
Test System: AMES SALMONELLA TYPHIMURIUM, Strain/Indicator: TA100, Metabolic Activation: RAT, LIVER, S-9, AROCLOR 1254 (10 OR 30%), Method: PREINCUBATION
  mutagenic call: inactive; negative
Test System: AMES SALMONELLA TYPHIMURIUM, Strain/Indicator: TA1535, Metabolic Activation: HAMSTER, LIVER, S-9, AROCLOR 1254 (10 OR 30%), Method: PREINCUBATION
  mutagenic call: inactive; negative
Test System: AMES SALMONELLA TYPHIMURIUM, Strain/Indicator: TA1535, Metabolic Activation: NONE, Method: PREINCUBATION
  mutagenic call: inactive; negative
Test System: AMES SALMONELLA TYPHIMURIUM, Strain/Indicator: TA1535, Metabolic Activation: RAT, LIVER, S-9, AROCLOR 1254 (10 OR 30%), Method: PREINCUBATION
  mutagenic call: inactive; negative
Test System: AMES SALMONELLA TYPHIMURIUM, Strain/Indicator: TA1537, Metabolic Activation: HAMSTER, LIVER, S-9, AROCLOR 1254 (10 OR 30%), Method: PREINCUBATION
  mutagenic call: inactive; negative
Test System: AMES SALMONELLA TYPHIMURIUM, Strain/Indicator: TA1537, Metabolic Activation: NONE, Method: PREINCUBATION
  mutagenic call: inactive; negative
Test System: AMES SALMONELLA TYPHIMURIUM, Strain/Indicator: TA1537, Metabolic Activation: RAT, LIVER, S-9, AROCLOR 1254 (10 OR 30%), Method: PREINCUBATION
  mutagenic call: inactive; negative
Test System: E. COLI, Strain/Indicator: WP2 UVRA, Metabolic Activation: NONE, Method: SPOT TEST
  mutagenic call: active; positive
Test System: E. COLI, Strain/Indicator: WP2 UVRA, Metabolic Activation: NONE, Method: STANDARD PLATE
  mutagenic call: active; positive

## Nc1ccc(Cl)c(C(F)(F)F)c1
[1]
  mutagenic call: inactive; negative
[2]
  mutagenic call: inactive; negative
[3]
  mutagenic call: inactive; negative
[4]
  mutagenic call: inactive; negative
[5]
  mutagenic call: inactive; negative
[6]
  mutagenic call: inactive; negative
[7]
  mutagenic call: inactive; negative
[8]
  mutagenic call: inactive; negative
[9]
  mutagenic call: inactive; negative
[10]
  mutagenic call: inactive; negative

## Fc1cc2ccccc2c2ncccc12
Test System: AMES SALMONELLA TYPHIMURIUM, Strain/Indicator: TA100, Metabolic Activation: RAT, LIVER, S-9, PHENOBARBITAL AND 5,6-BENZOFLAVONE, Method: PREINCUBATION
  mutagenic call: active; positive

## COC(=O)C12OC1(C)C(C(C)C)OC2=O (stereo not given)
Test System: AMES SALMONELLA TYPHIMURIUM, Strain/Indicator: TA98, Metabolic Activation: NONE, Method: DISK ASSAY
  mutagenic call: active; positive
[1]
  mutagenic call: active; positive
Test System: AMES SALMONELLA TYPHIMURIUM, Strain/Indicator: TA98, Metabolic Activation: RAT, LIVER, S-9, AROCLOR 1254, Method: DISK ASSAY
  mutagenic call: active; positive
[2]
  mutagenic call: active; positive
[3]
  mutagenic call: inactive; negative
[4]
  mutagenic call: active; positive

## CC(C)C1=CC2=CC[C@@H]3[C@](C)(CCC[C@@]3(C)C(=O)O)[C@H]2CC1
Test System: AMES SALMONELLA TYPHIMURIUM, Strain/Indicator: TA98, Metabolic Activation: HAMSTER, LIVER, S-9, AROCLOR 1254, Method: STANDARD PLATE
  mutagenic call: inactive; negative
[1]
  mutagenic call: inactive; negative
[2]
  mutagenic call: inactive; negative
Test System: AMES SALMONELLA TYPHIMURIUM, Strain/Indicator: TA100, Metabolic Activation: HAMSTER, LIVER, S-9, AROCLOR 1254, Method: STANDARD PLATE
  mutagenic call: inactive; negative
[3]
  mutagenic call: inactive; negative
[4]
  mutagenic call: inactive; negative
Test System: AMES SALMONELLA TYPHIMURIUM, Strain/Indicator: TA1535, Metabolic Activation: HAMSTER, LIVER, S-9, AROCLOR 1254, Method: STANDARD PLATE
  mutagenic call: inactive; negative
[5]
  mutagenic call: inactive; negative
[6]
  mutagenic call: inactive; negative
Test System: AMES SALMONELLA TYPHIMURIUM, Strain/Indicator: TA1537, Metabolic Activation: HAMSTER, LIVER, S-9, AROCLOR 1254, Method: STANDARD PLATE
  mutagenic call: inactive; negative
[7]
  mutagenic call: inactive; negative
[8]
  mutagenic call: inactive; negative
Test System: AMES SALMONELLA TYPHIMURIUM, Strain/Indicator: TA1538, Metabolic Activation: HAMSTER, LIVER, S-9, AROCLOR 1254, Method: STANDARD PLATE
  mutagenic call: inactive; negative
[9]
  mutagenic call: inactive; negative
[10]
  mutagenic call: inactive; negative
Test System: MOUSE LYMPHOMA, Strain/Indicator: L5178Y (TK+/TK-), Metabolic Activation: NONE, Method: SUSPENSION/PLATE
  mutagenic call: active; positive. reevaluation of results: positive
Test System: MOUSE LYMPHOMA, Strain/Indicator: L5178Y (TK+/TK-), Metabolic Activation: RAT, LIVER, S-9, AROCLOR 1254, Method: SUSPENSION/PLATE
  mutagenic call: inactive; negative. reevaluation of results: negative
